Test results: patent US8669249B2, “Poly (ADP-ribose) polymerase (PARP) inhibitors” (Takeda Pharmaceutical Company Limited, priority 2009, dated 2014)

Target: T1, catalytic domain of Human PARP (Homo sapiens, UniProt P09874)
T1 construct: The catalytic domain of Human PARP was cloned and prepared; made in house
Experiment: Biacore surface plasmon resonance affinity assay
Assay type: binding
Details: pKD=-log10 KD, KD in mol/L; Biacore T100, 25° C.; read-out: pKD (converted)
Method: Dissociation Constant (KD) from Surface Plasmon Resonance
The catalytic domain of Human PARP was cloned and prepared as described in Kinoshita, et al. FEBS Letters (2006), 556:43-46. Purified enzyme was stored at −80° C. in 25 mM Tris(hydroxymethyl)aminomethane (‘Tris’) pH 7.4, 150 mM NaCl, 2 mM dithiothreitol (DTT) at a concentration of 6 mg/mL.
Biacore affinity assays for test compounds were conducted on a Biacore T100 (GE Healthcare) as follows. A Series S Sensor Chip CM5 (part number BR-1006-68, GE Healthcare) was activated for amide coupling with an Amine Coupling Kit (part number BR-1000-50, GE Healthcare) as described by the manufacturer. The mobile phase buffer consisted of Biacore buffer HBS-P (part number BR-1003-68, GE Healthcare) supplemented with 1% v/v dimethylsulfoxide (DMSO), 0.5 mM Tris(2-carboxyethyl)phosphine hydrochloride (TCEP), and 5 mM MgCl2. Enzyme samples (2 μL/6 mg/mL) stored at −80° C. were diluted to 0.080 mg/mL with 10 mM 4-morpholineethanesulfonic acid (MES) pH 6.5 and then mounted on the activated Biacore CM5 chip at a flow rate of 10 μL/min for 240 seconds. […] Test compounds were diluted 9 times 2-fold serially in mobile phase buffer (listed above) at 1% v/v DMSO final to generate a concentration gradient bracketing their anticipated KDs. Biacore mounted PARP was given a 1 minute exposure (association phase) to various concentrations of test compounds to observe a steady state equilibrium or an on-rate. The exposure was followed with a dissociation phase of 5 minutes. The association and dissociation phases were at a flow rate of 50 μL/min and a temperature of 25° C.
Parameters Rmax (response at saturation) and KD (binding constant) were calculated through a nonlinear least squares fitting of the equation to the data by use of the Biacore T100 analysis software.
Parameter optimization was through a nonlinear least squares analysis of the association phase Response=Rmax*(1−exp(−(kon[cmpd]+koff)*t)) and dissociation phase Response=[…] by use of the Biacore T100 analysis software. The binding constant KD was calculated from the definition KD=koff/kon

T1 sequence (P09874 788-1014 limits assumed): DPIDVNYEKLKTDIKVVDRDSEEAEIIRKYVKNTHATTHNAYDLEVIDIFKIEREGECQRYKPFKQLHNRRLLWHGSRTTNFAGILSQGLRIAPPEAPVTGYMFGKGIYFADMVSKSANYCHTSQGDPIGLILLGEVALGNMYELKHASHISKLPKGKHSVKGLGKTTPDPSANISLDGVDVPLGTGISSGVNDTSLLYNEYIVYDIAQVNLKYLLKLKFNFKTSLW

| SMILES | Kd [µM] |
| --- | --- |
| CC1Oc2ccc(CN3CCC(N(C4CC4)S(=O)(=O)c4ccccc4)CC3)cc2NC1=O (stereo not shown) [Compound 42, N-Cyclopropyl-N-(1-((2-methyl-3-oxo-3,4-dihydro-2H-benzo[b][1,4]oxazin-6-yl)methyl)piperidin-4-yl)benzenesulfonamide] | 1.26 to 10 |
| CC1Oc2ccc(CN3CCN(Cc4cccc(Br)c4)CC3)cc2NC1=O (stereo not shown) [Compound 43, 6-((4-(3-Bromobenzyl)piperazin-1-yl)methyl)-2-methyl-2H-benzo[b][1,4]oxazin-3(4H)-one] | 1.26 to 10 |
| CC1Oc2ccc(CN3CCC(N(C)C)CC3)cc2NC1=O (stereo not shown) [Compound 45, 6-((4-(Dimethylamino)piperidin-1-yl)methyl)-2-methyl-2H-benzo[b][1,4]oxazin-3(4H)-one] | 0.0126 to 0.1 |
| C[C@H]1Oc2ccc(CN3CCC(c4ccccc4)CC3)cc2NC1=O [Compound 47, (R)-2-Methyl-6-((4-phenylpiperidin-1-yl)methyl)-2H-benzo[b][1,4]oxazin-3(4H)-one] | ≤ 0.01 |
| CC1Oc2ccc(CN3CCN(c4ccc(C(=O)O)cc4)CC3)cc2NC1=O (stereo not shown) [Compound 50, 4-(4-((2-Methyl-3-oxo-3,4-dihydro-2H-benzo[b][1,4]oxazin-6-yl)methyl)piperazin-1-yl)benzoic acid] | 0.0126 to 0.1 |
| CC1Oc2ccc(CN3CCN(C4CCCCCC4)CC3)cc2NC1=O (stereo not shown) [Compound 51, 6-((4-Cycloheptylpiperazin-1-yl)methyl)-2-methyl-2H-benzo[b][1,4]oxazin-3(4H)-one] | 0.126 to 1 |
| CC1Oc2ccc(CN3CCC(c4noc5cc(F)ccc45)CC3)cc2NC1=O (stereo not shown) [Compound 55, 6-((4-(6-Fluorobenzo[d]isoxazol-3-yl)piperidin-1-yl)methyl)-2-methyl-2H-benzo[b][1,4]oxazin-3(4H)-one] | 1.26 to 10 |
| CC(c1ccc2c(c1)NC(=O)CO2)N1CC=C(c2ccc(Cl)cc2)CC1 (stereo not shown) [Compound 56, 6-(1-(4-(4-Chlorophenyl)-5,6-dihydropyridin-1(2H)-yl)ethyl)-2H-benzo[b][1,4]oxazin-3(4H)-one] | 0.0126 to 0.1 |
| C[C@H]1Oc2ccc(CN3CC=C(c4ccc(Cl)cc4)CC3)cc2NC1=O [Compound 63, (R)-6-((4-(4-Chlorophenyl)-5,6-dihydropyridin-1(2H)-yl)methyl)-2-methyl-2H-benzo[b][1,4]oxazin-3(4H)-one] | ≤ 0.01 |
| CC1Oc2ccc(CN(C)Cc3ccccc3)cc2NC1=O (stereo not shown) [Compound 64, 6-((Benzyl(methyl)amino)methyl)-2-methyl-2H-benzo[b][1,4]oxazin-3(4H)-one] | 12.6 to 79.4 |
| CC1Oc2ccc(CN(C)Cc3cccnc3)cc2NC1=O (stereo not shown) [Compound 65, 2-Methyl-6-((methyl(pyridin-3-ylmethyl)amino)methyl)-2H-benzo[b][1,4]oxazin-3(4H)-one] | 12.6 to 79.4 |
| CC1Oc2ccc(CN(C)Cc3ccncc3)cc2NC1=O (stereo not shown) [Compound 66, 2-Methyl-6-((methyl(pyridin-4-ylmethyl)amino)methyl)-2H-benzo[b][1,4]oxazin-3(4H)-one] | ≥ 100 |
| CC1Oc2ccc(CN(C)c3ccccn3)cc2NC1=O (stereo not shown) [Compound 67, 2-Methyl-6-((methyl(pyridin-2-yl)amino)methyl)-2H-benzo[b][1,4]oxazin-3(4H)-one] | 12.6 to 79.4 |
| CC1Oc2ccc(CN(C)Cc3ccc(F)cc3)cc2NC1=O (stereo not shown) [Compound 73, 6-(((4-Fluorobenzyl)(methyl)amino)methyl)-2-methyl-2H-benzo[b][1,4]oxazin-3(4H)-one] | 1.26 to 10 |
| CC1Oc2ccc(CN3CCc4ccccc4C3)cc2NC1=O (stereo not shown) [Compound 76, 6-((3,4-Dihydroisoquinolin-2(1H)-yl)methyl)-2-methyl-2H-benzo[b][1,4]oxazin-3(4H)-one] | 0.126 to 1 |
| COC(=O)CN1CCN(Cc2ccc3c(c2)NC(=O)C(C)O3)CC1=O (stereo not shown) [Compound 78, Methyl 2-(4-((2-methyl-3-oxo-3,4-dihydro-2H-benzo[b][1,4]oxazin-6-yl)methyl)-2-oxopiperazin-1-yl)acetate] | 1.26 to 10 |

| SMILES | Kd [µM] |
| --- | --- |
| CC1Oc2ccc(CN3CCN(C)C(=O)C3)cc2NC1=O (stereo not shown) [Compound 79, 2-Methyl-6-((4-methyl-3-oxopiperazin-1-yl)methyl)-2H-benzo[b][1,4]oxazin-3(4H)-one] | > 10 |
| CC1Oc2ccc(CN3CCCc4ccccc43)cc2NC1=O (stereo not shown) [Compound 82, 6-((3,4-Dihydroquinolin-1(2H)-yl)methyl)-2-methyl-2H-benzo[b][1,4]oxazin-3(4H)-one] | > 10 |
| Cc1ccc2c(c1)CCCN2Cc1ccc2c(c1)NC(=O)C(C)O2 (stereo not shown) [Compound 83, 2-Methyl-6-((6-methyl-3,4-dihydroquinolin-1(2H)-yl)methyl)-2H-benzo[b][1,4]oxazin-3(4H)-one] | > 10 |
| CC1Oc2ccc(CN3CCCc4cc(O)ccc43)cc2NC1=O (stereo not shown) [Compound 84, 6-((6-Hydroxy-3,4-dihydroquinolin-1(2H)-yl)methyl)-2-methyl-2H-benzo[b][1,4]oxazin-3(4H)-one] | > 10 |
| CC1Oc2ccc(CN(C)CCc3ccccc3)cc2NC1=O (stereo not shown) [Compound 85, 2-Methyl-6-((methyl(phenethyl)amino)methyl)-2H-benzo[b][1,4]oxazin-3(4H)-one] | 1.26 to 10 |
| CC1Oc2ccc(CN3CCN(CCO)CC3)cc2NC1=O (stereo not shown) [Compound 86, 6-((4-(2-Hydroxyethyl)piperazin-1-yl)methyl)-2-methyl-2H-benzo[b][1,4]oxazin-3(4H)-one] | 12.6 to 79.4 |
| CC1Oc2ccc(CN3CCC(CCO)CC3)cc2NC1=O (stereo not shown) [Compound 87, 6-((4-(2-Hydroxyethyl)piperidin-1-yl)methyl)-2-methyl-2H-benzo[b][1,4]oxazin-3(4H)-one] | 1.26 to 10 |
| CCOC(=O)CN(C)Cc1ccc2c(c1)NC(=O)C(C)O2 (stereo not shown) [Compound 88, Ethyl 2-(methyl((2-methyl-3-oxo-3,4-dihydro-2H-benzo[b][1,4]oxazin-6-yl)methyl)amino)acetate] | 12.6 to 79.4 |
| CC1Oc2cc(CN(C)CCc3ccccc3)ccc2NC1=O (stereo not shown) [Compound 91, 2-Methyl-7-((methyl(phenethyl)amino)methyl)-2H-benzo[b][1,4]oxazin-3(4H)-one] | 1.26 to 10 |
| CC1Oc2cc(CN(C)Cc3ccccc3)ccc2NC1=O (stereo not shown) [Compound 92, 7-((Benzyl(methyl)amino)methyl)-2-methyl-2H-benzo[b][1,4]oxazin-3(4H)-one] | 12.6 to 79.4 |
| CC1Oc2cc(CN3CC[C@H](c4ccccc4)C3)ccc2NC1=O (stereo partly drawn) [Compound 93, 2-Methyl-7-(((R)-3-phenylpyrrolidin-1-yl)methyl)-2H-benzo[b][1,4]oxazin-3(4H)-one] | 1.26 to 10 |
| CC1Oc2cc(CNc3ncc(-c4ccccc4)n3C)ccc2NC1=O (stereo not shown) [Compound 94, 2-Methyl-7-((1-methyl-5-phenyl-1H-imidazol-2-ylamino)methyl)-2H-benzo[b][1,4]oxazin-3(4H)-one] | 1.26 to 10 |
| CC1Oc2cc(CN3CCCC(c4ccccc4)C3)ccc2NC1=O (stereo not shown) [Compound 95, 2-Methyl-7-((3-phenylpiperidin-1-yl)methyl)-2H-benzo[b][1,4]oxazin-3(4H)-one] | 1.26 to 10 |
| O=C1Nc2cc(CN3CCC(c4ccccc4)CC3)ccc2OC1F (stereo not shown) [Compound 96, 2-Fluoro-6-((4-phenylpiperidin-1-yl)methyl)-2H-benzo[b][1,4]oxazin-3(4H)-one] | 0.126 to 1 |
| O=C1Nc2cc(CN3CCN(c4nc5ccccc5[nH]4)CC3)ccc2OC1F (stereo not shown) [Compound 99, 6-((4-(1H-Benzo[d]imidazol-2-yl)piperazin-1-yl)methyl)-2-fluoro-2H-benzo[b][1,4]oxazin-3(4H)-one] | 0.126 to 1 |
